Numbers after ± are expanded uncertainties.
Test: molar heat capacity at constant pressure
Conditions: 101.33 kPa, Crystal, Vacuum adiabatic calorimetry

O=C([O-])c1ccccc1.O=C([O-])c1ccccc1.[Ba+2] [barium benzoate]
Conditions	molar heat capacity at constant pressure [J/K/mol]
77.78 K	109.64 ± 0.68
79.5 K	111.79 ± 0.7
82.08 K	114.77 ± 0.71
84.57 K	117.57 ± 0.73
86.98 K	119.65 ± 0.74
89.39 K	121.92 ± 0.76
91.65 K	124.31 ± 0.78
93.86 K	126.6 ± 0.79
96.1 K	128.79 ± 0.81
98.25 K	130.89 ± 0.82
100.3 K	132.67 ± 0.83
102.4 K	134.86 ± 0.84
104.4 K	137.21 ± 0.86
106.5 K	139.25 ± 0.87
108.3 K	141.18 ± 0.88
110.3 K	142.99 ± 0.89
112.2 K	144.86 ± 0.9
114.1 K	146.37 ± 0.91
115.9 K	148.24 ± 0.92
117.8 K	150.2 ± 0.93
119.6 K	152.24 ± 0.95
122.4 K	154.37 ± 0.96
125.9 K	157.49 ± 0.98
128.8 K	160.12 ± 0.99
131.6 K	162.83 ± 1
134.5 K	165.78 ± 1
137.4 K	168.03 ± 1
140.3 K	170.89 ± 1.1
143.1 K	173.54 ± 1.1
146.1 K	176.75 ± 1.1
148.9 K	178.82 ± 1.1
152.8 K	182.27 ± 1.1
154.7 K	184.19 ± 1.1
157.6 K	186.99 ± 1.1
160.4 K	189.18 ± 1.2
163.4 K	191.95 ± 1.2
166.3 K	194.11 ± 1.2
169.1 K	197.21 ± 1.2
172 K	199.98 ± 1.2
174.9 K	202.6 ± 1.2
177.8 K	204.53 ± 1.3
180.6 K	207.13 ± 1.3
184.7 K	211.18 ± 1.3
188.6 K	214.68 ± 1.3
191.5 K	216.93 ± 1.3
194.4 K	219.24 ± 1.4
197.2 K	221.9 ± 1.4
200.2 K	224.02 ± 1.4
203.1 K	226.01 ± 1.4
206 K	228.46 ± 1.4
208.9 K	231.14 ± 1.4
211.8 K	233.77 ± 1.4
214.6 K	235.99 ± 1.4
217.5 K	238.64 ± 1.5
220.5 K	240.68 ± 1.5
223.4 K	243.49 ± 1.5
226.3 K	245.79 ± 1.5
229.1 K	248.3 ± 1.5
232 K	250.4 ± 1.5
235 K	253.03 ± 1.6
238 K	255.71 ± 1.6
242.6 K	259.3 ± 1.6
245.5 K	262.07 ± 1.6
248.3 K	264.47 ± 1.6
251.2 K	266.71 ± 1.6
254.2 K	269.22 ± 1.6
257 K	270.83 ± 1.7
259.8 K	272.78 ± 1.7
262.7 K	276.16 ± 1.7
265.6 K	277.74 ± 1.7
268.6 K	279.79 ± 1.7
271.6 K	282.06 ± 1.7
274.5 K	284.16 ± 1.7
277.5 K	286.12 ± 1.8
280.4 K	288.42 ± 1.8
283.3 K	290.79 ± 1.8
286.3 K	292.92 ± 1.8
289.2 K	295.05 ± 1.8
292 K	297.35 ± 1.8
294.9 K	299.58 ± 1.8
297.9 K	301.75 ± 1.8
300.8 K	303.71 ± 1.9
303.6 K	305.99 ± 1.9
306.5 K	308.5 ± 1.9
309.3 K	310.54 ± 1.9
312.2 K	312.73 ± 1.9
315.2 K	314.63 ± 1.9
318.2 K	316.73 ± 1.9
321.2 K	318.3 ± 1.9
324.1 K	320.78 ± 2
327 K	322.91 ± 2
330 K	325.19 ± 2
332.9 K	327.09 ± 2
335.9 K	329.01 ± 2
338.7 K	330.94 ± 2
341.6 K	333.36 ± 2
344.6 K	335.34 ± 2
347.5 K	337.3 ± 2.1
350.3 K	339.28 ± 2.1
353.2 K	340.83 ± 2.1
356.2 K	342.81 ± 2.1
359 K	344.74 ± 2.1
361.9 K	346.43 ± 2.1
364.8 K	348.25 ± 2.1
367.6 K	350.41 ± 2.1
370.5 K	352.35 ± 2.1
373.5 K	354.08 ± 2.2
376.4 K	355.62 ± 2.2
379.4 K	358.05 ± 2.2
382.4 K	359.77 ± 2.2
385.3 K	361.34 ± 2.2
388.3 K	363.44 ± 2.2
390.7 K	364.99 ± 2.2
393 K	366.42 ± 2.2
395.9 K	368.64 ± 2.2
398.9 K	370.39 ± 2.3
401.9 K	371.91 ± 2.3
